Laboratory results as given in USRE39591E1, “6-O-substituted ketolides having antibacterial activity” (Abbott Laboratories, priority 1996, dated 2007).
In brackets after ≈: the same amount, converted by molar mass.

Tested on: up to 32 different microorganisms
Assay: in vitro antibacterial activity (MIC), agar dilution on Brain Heart Infusion (BHI) agar with Steers replicator
Assay type: cell-based
Conditions: unit assumed
Description: Representative compounds of the present invention were assayed in vitro for antibacterial activity as follows: Twelve petri dishes containing successive aqueous dilutions of the test compound mixed with 10 mL of sterilized Brain Heart Infusion (BHI) agar (Difco 0148-01-5) were prepared. Each plate was inoculated with 1:100 (or 1:10 for slow-growing strains, such as Micrococcus and Streptococcus) dilutions of up to 32 different microorganisms, using a Steers replicator block. The inoculated plates were incubated at 35°-37° C. for 20 to 24 hours. In addition, a control plate, using BHI agar containing no test compound, was prepared and incubated at the beginning and end of each test.
An additional plate containing a compound having known susceptibility patterns for the organisms being tested and belonging to the same antibiotic class as the test compound was also prepared and incubated as a further control, as well as to provide test-to-test comparability. Erythromycin A was used for this purpose.
After incubation, each plate was visually inspected. The minimum inhibitory concentration (MIC) was defined as the lowest concentration of drug yielding no growth, a slight haze, or sparsely isolated colonies on the inoculum spot as compared to the growth control.

[1] = Candida albicans CCH 442 (code TT)
[2] = Enterococcus faecism ATCC 8043 (code II)
[3] = Escherichia coli DC-2 (code SS)
[4] = Escherichia coli JUHL (code QQ)
[5] = Haemophilis influenzae DILL AMP R (code WW)
[6] = Micrococcus luteus ATCC 4698 (code PP)
[7] = Micrococcus luteus ATCC 9341 (code OO)
[8] = Mycobacterium smegmatis ATCC 114 (code UU)
[9] = Nocardia Asteroides ATCC9970 (code VV)
[10] = Staphylococcus aureus 1775 (code GG)
[11] = Staphylococcus aureus A5177 (code BB)
[12] = Staphylococcus aureus A-5278 (code CC)
[13] = Staphylococcus aureus ATCC 6538P (code AA)
[14] = Staphylococcus aureus CMX 553 (code FF)
[15] = Staphylococcus aureus CMX 642A (code DD)
[16] = Staphylococcus aureus NCTC10649M (code EE)
[17] = Staphylococcus epidermidis 3519 (code HH)
[18] = Streptococcus Pneumonia 5649 (code ZZA)
[19] = Streptococcus Pneumonia 5979 (code ZZ)
[20] = Streptococcus Pneumonia ATCC6303 (code XX)
[21] = Streptococcus Pneumonia GYR 1171 (code YY)
[22] = Streptococcus agalactiae CMX 508 (code KK)
[23] = Streptococcus bovis A-5169 (code JJ)
[24] = Streptococcus pyogenes 930 (code MM)
[25] = Streptococcus pyogenes EES61 (code LL)
[26] = Streptococcus pyogenes PIU 2548 (code NN)

Compound: CCC1OC(=O)C(C)C(=O)C(C)C(OC2OC(C)CC(N(C)C)C2O)C(C)(OCC=Cc2cc(Cl)cc(Cl)c2)CC(C)C(=O)C(C)C2NC(=O)OC12C (centres unmarked) [Example 284, Compound of Formula (IX): L is CO, T is NH2, R is —CH2CH═CH-(3,5-dichlorophenyl)]
- MIC (organism code AA): 0.2 µg/mL
- MIC (organism code BB): 0.2 µg/mL
- MIC (organism code CC): 50 µg/mL
- MIC (organism code DD): 0.2 µg/mL
- MIC (organism code EE): 0.2 µg/mL
- MIC (organism code FF): 0.2 µg/mL
- MIC (organism code GG): 50 µg/mL
- MIC (organism code HH): 0.2 µg/mL
- MIC (organism code II): 0.05 µg/mL
- MIC (organism code JJ): 0.02 µg/mL
- MIC (organism code KK): 0.02 µg/mL
- MIC (organism code LL): ≤ 0.005 µg/mL
- MIC (organism code MM): 25 µg/mL
- MIC (organism code NN): 0.2 µg/mL
- MIC (organism code OO): 0.05 µg/mL
- MIC (organism code PP): 0.2 µg/mL
- MIC (organism code QQ): > 100 µg/mL
- MIC (organism code RR): 1.56 µg/mL
- MIC (organism code SS): > 100 µg/mL
- MIC (organism code TT): 50 µg/mL
- MIC (organism code UU): 0.2 µg/mL
- MIC (organism code VV): 0.78 µg/mL
- MIC (organism code WW): 4 µg/mL
- MIC (organism code XX): 0.03 µg/mL
- MIC (organism code YY): 0.03 µg/mL
- MIC (organism code ZZ): 32 µg/mL
- MIC (organism code ZZA): 0.25 µg/mL

Compound: CC[C@H]1OC(=O)[C@H](C)C(=O)[C@H](C)[C@@H](O[C@@H]2O[C@H](C)C[C@H](N(C)C)[C@H]2O)[C@@](C)(OCC=Cc2ccc(Cl)cc2)C[C@@H](C)C(=O)[C@H](C)[C@H]2OC(=O)O[C@@]21C [Example 74, Compound of Formula (IX): L is CO, T is O, R is —CH2CH═CH-(4-chlorophenyl)]
- MIC [1]: > 100 µg/mL
- MIC [2]: 0.1 µg/mL
- MIC [3]: > 100 µg/mL
- MIC [4]: > 100 µg/mL
- MIC (Escherichia coli SS (code RR)): 3.3 µg/mL
- MIC [5]: 4 µg/mL
- MIC [6]: 0.2 µg/mL
- MIC [7]: 0.05 µg/mL
- MIC [8]: 0.39 µg/mL
- MIC [9]: 0.39 µg/mL
- MIC [10]: > 100 µg/mL
- MIC [11]: 0.2 µg/mL
- MIC [12]: > 100 µg/mL
- MIC [13]: 0.2 µg/mL
- MIC [14]: 0.2 µg/mL
- MIC [15]: 0.2 µg/mL
- MIC [16]: 0.2 µg/mL
- MIC [17]: 0.2 µg/mL
- MIC [18]: 0.5 µg/mL
- MIC [19]: 32 µg/mL
- MIC [20]: 0.125 µg/mL
- MIC [21]: 0.125 µg/mL
- MIC [22]: 0.05 µg/mL
- MIC [23]: 0.05 µg/mL
- MIC [24]: 50 µg/mL
- MIC [25]: 0.05 µg/mL
- MIC [26]: 0.39 µg/mL

Compound: CC[C@H]1OC(=O)[C@H](C)C(=O)[C@H](C)[C@@H](O[C@@H]2O[C@H](C)C[C@H](N(C)C)[C@H]2O)[C@@](C)(OCC#Cc2ccc3ncccc3c2)C[C@@H](C)C(=O)[C@H](C)[C@H]2NC(=O)O[C@@]21C [Example 254, Compound of Formula (IX): L is CO, T is NH, R is —CH2—C≡C-(6-quinolyl)]
- MIC (organism code AA): 0.1 µg/mL
- MIC (organism code BB): 0.1 µg/mL
- MIC (organism code CC): > 100 µg/mL
- MIC (organism code DD): 0.1 µg/mL
- MIC (organism code EE): 0.1 µg/mL
- MIC (organism code FF): 0.1 µg/mL
- MIC (organism code GG): > 100 µg/mL
- MIC (organism code HH): 0.1 µg/mL
- MIC (organism code II): 0.02 µg/mL
- MIC (organism code JJ): ≤ 0.005 µg/mL
- MIC (organism code KK): 0.01 µg/mL
- MIC (organism code LL): 0.01 µg/mL
- MIC (organism code MM): 0.78 µg/mL
- MIC (organism code NN): 0.1 µg/mL
- MIC (organism code OO): 0.02 µg/mL
- MIC (organism code PP): 0.1 µg/mL
- MIC (organism code QQ): 25 µg/mL
- MIC (organism code RR): 0.2 µg/mL
- MIC (organism code SS): 100 µg/mL
- MIC (organism code TT): > 100 µg/mL
- MIC (organism code UU): 0.78 µg/mL
- MIC (organism code VV): 0.01 µg/mL
- MIC (organism code WW): 2 µg/mL
- MIC (organism code XX): ≤ 0.004 µg/mL
- MIC (organism code YY): ≤ 0.004 µg/mL
- MIC (organism code ZZ): 2 µg/mL
- MIC (organism code ZZA): 0.25 µg/mL

Compound: CC[C@H]1OC(=O)[C@H](C)C(=O)[C@H](C)[C@@H](O[C@@H]2O[C@H](C)C[C@H](N(C)C)[C@H]2O)[C@@](C)(OCC=Cc2ccccc2)C[C@@H](C)C(=O)[C@H](C)[C@H]2NC(=O)O[C@@]21C [Example 103, Compound of Formula (IX): L is CO, T is NH, R is —CH2CH═CH-Phenyl]
- MIC [1]: > 100 µg/mL
- MIC [2]: 0.05 µg/mL
- MIC [3]: 100 µg/mL
- MIC [4]: 100 µg/mL
- MIC (Escherichia coli SS (code RR)): 0.39 µg/mL
- MIC [5]: 4 µg/mL
- MIC [6]: 0.1 µg/mL
- MIC [7]: 0.01 µg/mL
- MIC [8]: 0.2 µg/mL
- MIC [9]: 0.02 µg/mL
- MIC [10]: > 100 µg/mL
- MIC [11]: 0.1 µg/mL
- MIC [12]: > 100 µg/mL
- MIC [13]: 0.1 µg/mL
- MIC [14]: 0.1 µg/mL
- MIC [15]: 0.1 µg/mL
- MIC [16]: 0.1 µg/mL
- MIC [17]: 0.1 µg/mL
- MIC [18]: 0.25 µg/mL
- MIC [19]: 128 µg/mL
- MIC [20]: 0.03 µg/mL
- MIC [21]: 0.03 µg/mL
- MIC [22]: 0.02 µg/mL
- MIC [23]: 0.01 µg/mL
- MIC [24]: 100 µg/mL
- MIC [25]: 0.02 µg/mL
- MIC [26]: 0.1 µg/mL

Compound: CCC1OC(=O)C(C)C(=O)C(C)C(OC2OC(C)CC(N(C)C)C2O)C(C)(OCC=Cc2cnc3ccc(C(N)=O)cc3c2)CC(C)C(=O)C(C)C2NC(=O)OC12C (centres unmarked) [Example 217, R is —CH2CH═CH-(6-aminocarbonyl-3-quinolyl)]
- MIC (organism code AA): 0.2 µg/mL (≈ 0.247 µM)
- MIC (organism code BB): 0.39 µg/mL (≈ 0.482 µM)
- MIC (organism code CC): > 100 µg/mL
- MIC (organism code DD): 0.39 µg/mL (≈ 0.482 µM)
- MIC (organism code FF): 0.2 µg/mL (≈ 0.247 µM)
- MIC (organism code GG): > 100 µg/mL
- MIC (organism code HH): 0.39 µg/mL (≈ 0.482 µM)
- MIC (organism code II): 0.2 µg/mL (≈ 0.247 µM)
- MIC (organism code JJ): 0.02 µg/mL (≈ 0.0247 µM)
- MIC (organism code KK): 0.02 µg/mL (≈ 0.0247 µM)
- MIC (organism code LL): 0.02 µg/mL (≈ 0.0247 µM)
- MIC (organism code MM): 0.78 µg/mL (≈ 0.964 µM)
- MIC (organism code NN): 0.78 µg/mL (≈ 0.964 µM)
- MIC (organism code OO): 0.1 µg/mL (≈ 0.124 µM)
- MIC (organism code PP): 0.39 µg/mL (≈ 0.482 µM)
- MIC (organism code QQ): 50 µg/mL (≈ 61.8 µM)
- MIC (organism code RR): 0.39 µg/mL (≈ 0.482 µM)
- MIC (organism code SS): > 100 µg/mL
- MIC (organism code TT): > 100 µg/mL
- MIC (organism code UU): 12.5 µg/mL (≈ 15.5 µM)
- MIC (organism code VV): 0.78 µg/mL (≈ 0.964 µM)
- MIC (organism code WW): 2 µg/mL (≈ 2.47 µM)
- MIC (organism code XX): 0.03 µg/mL (≈ 0.0371 µM)
- MIC (organism code YY): 0.03 µg/mL (≈ 0.0371 µM)
- MIC (organism code ZZ): 2 µg/mL (≈ 2.47 µM)
- MIC (organism code ZZA): 2 µg/mL (≈ 2.47 µM)

Compound: CC[C@H]1OC(=O)[C@H](C)C(=O)[C@H](C)[C@@H](O[C@@H]2O[C@H](C)C[C@H](N(C)C)[C@H]2O)[C@@](C)(OCC=Cc2cnc3ccccc3c2)C[C@@H](C)C(=O)[C@H](C)[C@H]2N(N)C(=O)O[C@]12C [Example 263, Compound of Formula (IX): L is CO, T is N(NH2), R is —CH2CH═CH-(3-quinolyl)]
- MIC (organism code AA): 0.1 µg/mL
- MIC (organism code BB): 0.1 µg/mL
- MIC (organism code CC): > 100 µg/mL
- MIC (organism code DD): 0.1 µg/mL
- MIC (organism code EE): 0.1 µg/mL
- MIC (organism code FF): 0.05 µg/mL
- MIC (organism code GG): > 100 µg/mL
- MIC (organism code HH): 0.1 µg/mL
- MIC (organism code II): 0.01 µg/mL
- MIC (organism code JJ): 0.01 µg/mL
- MIC (organism code KK): 0.02 µg/mL
- MIC (organism code LL): 0.02 µg/mL
- MIC (organism code MM): 50 µg/mL
- MIC (organism code NN): 0.2 µg/mL
- MIC (organism code OO): 0.02 µg/mL
- MIC (organism code PP): 0.2 µg/mL
- MIC (organism code QQ): > 100 µg/mL
- MIC (organism code RR): 0.78 µg/mL
- MIC (organism code SS): > 100 µg/mL
- MIC (organism code TT): > 100 µg/mL
- MIC (organism code UU): 0.78 µg/mL
- MIC (organism code VV): 0.2 µg/mL
- MIC (organism code WW): 4 µg/mL
- MIC (organism code XX): 0.015 µg/mL
- MIC (organism code YY): 0.015 µg/mL
- MIC (organism code ZZ): > 128 µg/mL
- MIC (organism code ZZA): 0.25 µg/mL
